This passage reports logD and logP results from the SangsterLogP compilation.

Each structure is given as a SMILES string.

One data set in a line: method code SF, from DOI: 10.1016/0378-5173(85)90102-4. The note with it: pH 8.0.
Consider `CCN(CC)[C@@H](C)C(=O)OCn1ncc2c(=O)[nH]cnc21` (racemic), for which the logD (in general, lipophilicity at a set pH, counting ionised and neutral species) was found to be 0.72. As to `CN(C)CC(=O)OCn1ncc2c(=O)[nH]cnc21`, the logD was -0.49.

`NC(C(=O)OCn1ncc2c(=O)[nH]cnc21)c1ccccc1` (stereo not given): the log distribution coefficient (logD) is -0.15.

On to `CCCN(CCC)CC(=O)OCn1ncc2c(=O)[nH]cnc21`, for which the logD amounted to 1.27. `CC(C)C[C@H](N)C(=O)OCn1ncc2c(=O)[nH]cnc21` showed a logD of 0.19.

Experiment in the next data set: not given
Conditions: not given
Take `O=[N+]([O-])c1cccc(Cl)c1Cl`: the logP (commonly a log measure of how a compound divides between an organic and an aqueous phase) was 3.01. `Cc1ccc([N+](=O)[O-])cc1C`: the logP was 2.91. `Cc1cccc([N+](=O)[O-])c1C` returned a logP of 2.83. Same read-out and setting: to `O=[N+]([O-])c1cc(Cl)cc(Cl)c1` belongs 3.13. `Cc1ccc(Cl)cc1[N+](=O)[O-]` yielded a logP of 3.05.

Another data set in a line: method code SF-AS, from DOI: 10.1111/j.2042-7158.1989.tb06384.x, PMID: 2576447. The note with it: pH 7.4.
`CCCCn1c(=O)n(C)c(=O)c2nc[nH]c21` displayed a pH-dependent lipophilicity (logD) of 1.29. `CCCn1c(=O)[nH]c(=O)c2nc[nH]c21` showed a logD of 0.33. Still for that read-out and setting: to `CCn1c(=O)[nH]c(=O)c2nc[nH]c21` belongs -0.11; to `CCn1c(=O)n(C)c(=O)c2nc[nH]c21`, 0.52. With `CCCCn1c(=O)[nH]c(=O)c2nc[nH]c21`, the logD came out at 0.84.

The next data set can be described thus: method code SF-AS, from DOI: 10.1021/jm00163a043, PMID: 2153206. Particulars: pH 7.0.
The molecule `Nc1ccn([C@H]2C=C[C@@H](CO)O2)c(=O)n1` yielded a log distribution coefficient (logD) of -0.7.

In turn, `Cc1cn([C@H]2C[C@H](O)[C@@H](CO)O2)c(=O)[nH]c1=S` displayed a logD of -0.07.

The molecule `Cc1cn([C@H]2CC[C@@H](CO)O2)c(=O)[nH]c1=S` had a log distribution coefficient (logD) of 0.44. On the same count and under the same terms, as for `Nc1ccn(C2CC(O)C(CO)O2)c(=O)n1` (stereo not given), the figure is -1.62. On the same count and under the same terms, to `O=c1[nH]c(=S)ccn1[C@H]1CC[C@@H](CO)O1` belongs -0.21.

Another data set in a line: method code SF-GLC, from DOI: 10.1080/03086648508073361.
Conditions: not given
Take `CN(C)P1(=O)N(C)CCN1C`: the logP turned out to be 0.02. The same measure, in the same setting: as for `O=P(N1CCCC1)(N1CCCC1)N1CCCC1`, the figure is 1.67; as for `CN(C)P(=O)(N(C)C)N1CCCC1`, 0.82; as for `CCN(CC)P(=O)(N(CC)CC)N(CC)CC`, 2.53. The same measure, in the same setting: as for `CN(C)P(=O)(N1CCCC1)N1CCCC1`, the figure is 1.88.

The nature of the next data set: method code SF, from DOI: 10.1021/jm9405147, PMID: 8576915.
Conditions: not given
Take `NC1=C(Cl)C(=O)c2ccccc2C1=O`: the lipophilicity (logP) was 2.08. Same read-out and setting: as for `CC1=C(N2CC2)C(=O)C(Br)=C(N2CC2)C1=O`, the figure is 1.36; as for `NC1=CC(=O)c2ccccc2C1=O`, 1.77.

Molecule `CC1=C(N2CC2)C(=O)C(CCOC(N)=O)=C(N2CC2)C1=O` showed a logP of 0.16. Regarding `CC1=C(N2CC2)C(=O)C(Cl)=C(N2CC2)C1=O`, the logP was 1.2.

Experiment in another data set: not given
Conditions: not given
This is another data set of the same source.
In turn, `C=C(C)C(=O)OCCCOC(=O)C(=C)C` gave a logP of 1.86. The same measure, in the same setting: as for `C=C(C)C(=O)OCCCCCCCC(C)C`, the figure is 4.92.

In turn, `C=C(C)C(=O)OCC(F)(F)F` returned a logP of 1.56.

With `C=C(C)C(=O)OCCOC(=O)C(=C)C`, the logP worked out at 1.22. Still for that read-out and setting: as for `C=C(C)C(=O)OCC(C)(C)COC(=O)C(=C)C`, the figure is 2.79.

The next data set can be described thus: method code SF, from DOI: 10.1034/j.1399-3011.2003.00037.x, PMID: 12492901. Particulars: pH 2.0.
In turn, `CC(=O)N[C@@H](Cc1ccccc1)C(=O)O` showed a logD of 0.4. `C[C@H](Nc1ccc([N+](=O)[O-])cc1[N+](=O)[O-])C(=O)O`: the logD worked out at 2.09. On the same count and under the same terms, as for `CCCC(Nc1ccc([N+](=O)[O-])cc1[N+](=O)[O-])C(=O)O` (racemic), the figure is 2.88; as for `CCCC[C@H](Nc1ccc([N+](=O)[O-])cc1[N+](=O)[O-])C(=O)O`, 3.25.

The data set is the same for the next values; noted with them: pH 11.0.
`CC(=O)NC(Cc1c[nH]c2ccccc12)C(N)=O` (stereo not given) came in with a log distribution coefficient (logD) of 0.16.

Experiment in a further data set: not given
Conditions: not given
The source holds these as a separate data set.
For the molecule `CCC(C)(C)N`, the log partition coefficient (logP) was found to be 0.9. On to `CC(C)(O)C(C)(C)O`, for which the lipophilicity (logP) is -0.05. Still for that read-out and setting: to `CC(C)CC(N)=O` belongs 0.19.

Turning to `CC(O)CCO` (stereo not given), the logP is -0.79. Still for that read-out and setting: as for `OCCCCCO`, the figure is -0.43.

A further data set can be described thus: method code SF-AS, from PMID: 8197227. Particulars: pH 7.4.
`c1csc(NNCc2ccc3c(c2)OCO3)n1` gave a logD of 1.8. On the same count and under the same terms, as for `NC(=S)N/N=C\c1ccc2c(c1)OCO2`, the figure is 1.4. The molecule `O=C(NNc1nc(-c2ccccc2)cs1)c1ccc2c(c1)OCO2` returned a log distribution coefficient (logD) of 2.14. The same measure, in the same setting: to `NC(=S)NNCc1ccc2c(c1)OCO2` belongs 0.14. Still for that read-out and setting: to `Cc1csc(NN=Cc2ccc3c(c2)OCO3)n1` belongs 1.5.

Another data set in a line: method code SF-AS, from DOI: 10.1021/jm00254a011, PMID: 4845376.
Conditions: not given
`O=C1NCCN1c1ncc([N+](=O)[O-])s1` came in with a logP of 0.91. `CSC1=NCCN1c1ccc([N+](=O)[O-])o1` gave a logP of 1.19.

As for `CSC1=NCCN1c1ncc([N+](=O)[O-])s1`, the logP was 1.78. Same read-out and setting: to `O=[N+]([O-])c1cnc(N2CCNC2=S)s1` belongs 1.7; to `O=C1NCCN1c1ccc([N+](=O)[O-])o1`, 0.25.

A further data set in a line: method code SF-AS, from DOI: 10.1093/chemse/13.4.619. Particulars: pH 7.2.
Take `COC(=O)c1ccccn1`: the logD came out at 0.4.

`c1ccc(-c2ccncc2)nc1` had a logD of 1.58.

With `c1ccc(-c2cccnc2)nc1`, the logD worked out at 1.46. The molecule `O/N=C/c1cccnc1` showed a logD of 0.68. Molecule `COC(=O)c1cccnc1` returned a logD of 0.72. The logD values of the last two molecules are within 0.2 log units of each other.

Experiment in a further data set: not given
Conditions: not given
The source holds these as a separate data set.
In the case of `Clc1ccc2ccccc2c1Cl`, the logP amounted to 4.42. Still for that read-out and setting: to `Clc1ccc2cc(Cl)c(Cl)cc2c1` belongs 5.12; to `Clc1cc2c(Cl)ccc(Cl)c2cc1Cl`, 5.81; to `Clc1cc2c(Cl)cccc2c(Cl)c1Cl`, 5.77. On the same count and under the same terms, as for `Clc1c(Cl)c(Cl)c2c(Cl)c(Cl)c(Cl)c(Cl)c2c1Cl`, the figure is 6.42.

Experiment in a further data set: not given
Conditions: not given
This is another data set of the same source.
Regarding `N#Cc1c(Cl)c(Cl)c(Cl)c(C#N)c1Cl`, the logP amounted to 3.8. `Cc1ccccc1C(=O)Nc1cccc(OC(C)C)c1` came in with a logP of 3.5. The same measure, in the same setting: to `CNC(=O)Oc1ccccc1OC(C)C` belongs 1.99. Still for that read-out and setting: as for `CNC(=O)Oc1cc(C)cc(C)c1`, the figure is 2.38; as for `CNC(=O)Oc1ccc(C)c(C)c1`, 2.25.

Another data set is described as follows: method code SF-AS, from DOI: 10.1016/s0003-2670(01)80868-0.
Conditions: not given
Molecule `CC(C)C(=O)CC(=O)C(C)C` showed a logP of 2.22. Still for that read-out and setting: as for `CCC(=O)CC(=O)CC`, the figure is 1.12; as for `CC(=O)CC(C)=O`, 0.14.

Molecule `CCCC(=O)CC(=O)CCC` returned a logP of 2.23. In turn, `CC(=O)CC(=O)C(C)(C)C` returned a logP of 1.67.

Experiment in a further data set: not given
Conditions: not given
This is another data set of the same source.
The molecule `O=[N+]([O-])c1cc(-c2ccccc2)ccc1Br` came in with a logP of 4.82. In the case of `OCc1ccc(Cl)cc1`, the logP came out at 1.99. Same read-out and setting: as for `N#Cc1ccc(O)cc1`, the figure is 1.28; as for `O=C(O)c1ccc([N+](=O)[O-])cc1Cl`, 2.19. The same measure, in the same setting: to `O=C(O)c1cc([N+](=O)[O-])ccc1Cl` belongs 2.13.

Another data set is described as follows: method code SF-AS, from DOI: 10.1021/je700381u. Particulars: pH 0.0.
Molecule `O=C(O)c1ccc(Br)cc1F` returned a logD of 2.67.

With `O=C(O)c1cc(Br)ccc1F`, the logD was 3.43.

The molecule `O=C(O)c1ccc(Cl)cc1F` had a pH-dependent lipophilicity (logD) of 2.28. With `O=C(O)c1ccc(F)cc1Cl`, the logD turned out to be 2.63. Same read-out and setting: as for `O=C(O)c1cc(Br)ccc1Cl`, the figure is 3.16.

A further data set is described as follows: method code pH-metric titration, from DOI: 10.1002/(sici)1096-9063(199607)47:3<265::aid-ps416>3.0.co;2-f.
Conditions: not given
As to `CC(C(=O)O)N(C(=O)c1ccccc1)c1ccc(F)c(Cl)c1` (racemic), the logP was 3.09. Still for that read-out and setting: to `CN1CCC[C@H]1c1cccnc1` belongs 0.93; to `CC(Oc1ccc(Oc2ccc(C(F)(F)F)cn2)cc1)C(=O)O` (stereo not given), 3.18.

The same data set, now with this note: pH 2.7.
The molecule `CC(C)C1(C)N=C(c2ncccc2C(=O)O)NC1=O` (stereo not given) came in with a logD of 0.22.

Still in this data set, the particulars now being: pH 9.0.
For `CC(Cc1ccc(C(C)(C)C)cc1)CN1C[C@@H](C)O[C@@H](C)C1` (stereo not given in full), the logD worked out at 4.93.

Another data set is described as follows: method code SF-AS, from DOI: 10.1016/0048-3575(87)90152-0.
Conditions: not given
The molecule `COC(=O)C(c1ccccc1)C(C)C` (stereo not given) gave a logP of 3.33. Same read-out and setting: to `CC(C)[C@H](Nc1ccccc1)C(=O)OCc1ccccc1` belongs 4.41; to `CC(C)CC(=O)Oc1ccccc1`, 3.18. Still for that read-out and setting: to `CC(C)CC(=O)OCc1ccccc1` belongs 3.26; to `CCOC(C(=O)OCc1ccccc1)C(C)C` (stereo not given), 3.29.
